Measured values from PMC12041489 (Scientific Reports, 2025).

biological target: T1, mushroom tyrosinase (Agaricus bisporus, UniProt C7FF04); assay: not given; conditions: read-out: Tyrosinase inhibitory activity IC50
T1 sequence (C7FF04 1-392 limits assumed): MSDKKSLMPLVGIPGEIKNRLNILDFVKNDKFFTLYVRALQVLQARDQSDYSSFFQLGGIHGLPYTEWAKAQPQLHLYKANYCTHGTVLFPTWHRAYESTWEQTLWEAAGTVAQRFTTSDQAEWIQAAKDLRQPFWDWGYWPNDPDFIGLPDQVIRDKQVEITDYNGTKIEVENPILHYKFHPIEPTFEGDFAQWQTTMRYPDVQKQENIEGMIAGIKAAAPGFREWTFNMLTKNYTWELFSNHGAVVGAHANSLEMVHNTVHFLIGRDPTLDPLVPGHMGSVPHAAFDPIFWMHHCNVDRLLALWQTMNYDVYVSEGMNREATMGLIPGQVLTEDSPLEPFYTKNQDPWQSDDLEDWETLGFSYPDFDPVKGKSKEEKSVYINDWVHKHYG

| SMILES | IC50 |
| --- | --- |
| COc1ccc(CC(=O)Nc2nnc(SCc3cn(Cc4cc(=O)c(O)co4)nn3)s2)cc1 [Compound 6p, N-(5-(((1-((5-hydroxy-4-oxo-4H-pyran-2-yl)methyl)-1H-1,2,3-triazol-4-yl)met-hyl)thio)-1,3,4-thiadiazol-2-yl)-2-(4-methoxyphenyl)acetamide] | 3.832 ± 0.005 µM |
| Cc1cccc(CC(=O)Nc2nnc(SCc3cn(Cc4cc(=O)c(O)co4)nn3)s2)c1 [Compound 6k, N-(5-(((1-((5-hydroxy-4-oxo-4H-pyran-2-yl)methyl)-1H-1,2,3-triazol-4-yl)met-hyl)thio)-1,3,4-thiadiazol-2-yl)-2-(m-tolyl)acetamide] | 13.81 ± 0.066 µM |
| Cc1ccccc1CC(=O)Nc1nnc(SCc2cn(Cc3cc(=O)c(O)co3)nn2)s1 [Compound 6j, N-(5-(((1-((5-hydroxy-4-oxo-4H-pyran-2-yl)methyl)-1H-1,2,3-triazol-4-yl)met-hyl)thio)-1,3,4-thiadiazol-2-yl)-2-(o-tolyl)acetamide] | 17.26 ± 0.038 µM |
| Cc1ccc(CC(=O)Nc2nnc(SCc3cn(Cc4cc(=O)c(O)co4)nn3)s2)cc1 [Compound 6l, N-(5-(((1-((5-hydroxy-4-oxo-4H-pyran-2-yl)methyl)-1H-1,2,3-triazol-4-yl)met-hyl)thio)-1,3,4-thiadiazol-2-yl)-2-(p-tolyl)acetamide] | 3.289 ± 0.011 µM |

Further lines, results first:

| IC50 | SMILES |
| --- | --- |
| 1.83 ± 0.042 µM | CC(=O)c1cc(C)ccc1OCc1cn(Cc2cc(=O)c(O)co2)nn1 [Compound 13o, 2-((4-((2-acetyl-4-methylphenoxy)methyl)-1H-1,2,3-triazol-1-yl)methyl)-5-hy-droxy-4H-pyran-4-one] |
| 2.817 ± 0.007 µM | COc1ccc(C=O)c(OCc2cn(Cc3cc(=O)c(O)co3)nn2)c1 [Compound 13j, 2-((1-((5-hydroxy-4-oxo-4H-pyran-2-yl)methyl)-1H-1,2,3-triazol-4-yl)methox-y)-4-methoxybenzaldehyde] |
| 6.818 ± 0.027 µM | CC(=O)c1ccc(C)cc1OCc1cn(Cc2cc(=O)c(O)co2)nn1 [Compound 13n, 2-((4-((2-acetyl-5-methylphenoxy)methyl)-1H-1,2,3-triazol-1-yl)methyl)-5-hy-droxy-4H-pyran-4-one] |
| 2.58 ± 0.049 µM | CC(=O)c1ccc(F)cc1OCc1cn(Cc2cc(=O)c(O)co2)nn1 [Compound 13s, 2-((4-((2-acetyl-5-fluorophenoxy)methyl)-1H-1,2,3-triazol-1-yl)methyl)-5-hy-droxy-4H-pyran-4-one] |
| 3.03 ± 0.059 µM | CC(=O)c1ccc(Cl)cc1OCc1cn(Cc2cc(=O)c(O)co2)nn1 [Compound 13q, 2-((4-((2-acetyl-5–CHlorophenoxy)methyl)-1H-1,2,3-triazol-1-yl)methyl)-5-hy-droxy-4H-pyran-4-one] |
| 1.74 ± 0.048 µM | CC(=O)c1ccc(OCc2cn(Cc3cc(=O)c(O)co3)nn2)c(C)c1 [Compound 13e, 2-((4-((4-acetyl-2-methylphenoxy)methyl)-1H-1,2,3-triazol-1-yl)methyl)-5-hydr-oxy-4H-pyran-4-one] |
| 3.33 ± 0.057 µM | CC(=O)c1ccc(Br)cc1OCc1cn(Cc2cc(=O)c(O)co2)nn1 [Compound 13r, 2-((4-((2-acetyl-5-bromophenoxy)methyl)-1H-1,2,3-triazol-1-yl)methyl)-5-hy-droxy-4H-pyran-4-one] |

biological target: T1, mushroom tyrosinase; assay: biochemical; conditions: not given

| SMILES | IC50 |
| --- | --- |
| O=C(Nc1nnc(SCc2cn(Cc3cc(=O)c(O)co3)nn2)s1)c1ccc(Cl)cc1 [Compound 6e, 4–CHloro-N-(5-(((1-((5-hydroxy-4-oxo-4H-pyran-2-yl)methyl)-1H-1,2,3-triazol-4-yl)methyl)thio)-1,3,4-thiadiazol-2-yl)benzamide] | 6.073 ± 0.035 µM |
| Nc1ccc(C(=O)Nc2nnc(SCc3cn(Cc4cc(=O)c(O)co4)nn3)s2)cc1 [Compound 6i, 4-amino-N-(5-(((1-((5-hydroxy-4-oxo-4H-pyran-2-yl)methyl)-1H-1,2,3-triazol-4-yl)methyl)thio)-1,3,4-thiadiazol-2-yl)benzamide] | 16.31 ± 0.016 µM |
| O=C(Cc1ccc(Br)cc1)Nc1nnc(SCc2cn(Cc3cc(=O)c(O)co3)nn2)s1 [Compound 6n, 2-(4-bromophenyl)-N-(5-(((1-((5-hydroxy-4-oxo-4H-pyran-2-yl)methyl)-1H-1,2,3-triazol-4-yl)methyl)thio)-1,3,4-thiadiazol-2-yl)acetamide] | 12.36 ± 0.039 µM |
| O=C(Cc1ccc(Cl)cc1)Nc1nnc(SCc2cn(Cc3cc(=O)c(O)co3)nn2)s1 [Compound 6m, 2-(4–CHlorophenyl)-N-(5-(((1-((5-hydroxy-4-oxo-4H-pyran-2-yl)methyl)-1H-1,2,3-triazol-4-yl)methyl)thio)-1,3,4-thiadiazol-2-yl)acetamide] | 10.17 ± 0.032 µM |
| COc1ccc(C(=O)Nc2nnc(SCc3cn(Cc4cc(=O)c(O)co4)nn3)s2)cc1 [Compound 6h, N-(5-(((1-((5-hydroxy-4-oxo-4H-pyran-2-yl)methyl)-1H-1,2,3-triazol-4-yl)meth-yl)thio)-1,3,4-thiadiazol-2-yl)-4-methoxybenzamide] | 5.56 ± 0.078 µM |
| Cc1ccccc1C(=O)Nc1nnc(SCc2cn(Cc3cc(=O)c(O)co3)nn2)s1 [Compound 6b, N-(5-(((1-((5-hydroxy-4-oxo-4H-pyran-2-yl)methyl)-1H-1,2,3-triazol-4-yl)meth-yl)thio)-1,3,4-thiadiazol-2-yl)-2-methylbenzamide] | > 200 µM |
| O=C(Nc1nnc(SCc2cn(Cc3cc(=O)c(O)co3)nn2)s1)c1ccc(F)cc1 [Compound 6g, 4-fluoro-N-(5-(((1-((5-hydroxy-4-oxo-4H-pyran-2-yl)methyl)-1H-1,2,3-triazol-4-yl)methyl)thio)-1,3,4-thiadiazol-2-yl)benzamide] | 8.24 ± 0.023 µM |
| O=C(Nc1nnc(SCc2cn(Cc3cc(=O)c(O)co3)nn2)s1)c1ccccc1 [Compound 6a, N-(5-(((1-((5-hydroxy-4-oxo-4H-pyran-2-yl)methyl)-1H-1,2,3-triazol-4-yl)meth-yl)thio)-1,3,4-thiadiazol-2-yl)benzamide] | 20.59 ± 0.037 µM |
| Cc1cccc(C(=O)Nc2nnc(SCc3cn(Cc4cc(=O)c(O)co4)nn3)s2)c1 [Compound 6c, N-(5-(((1-((5-hydroxy-4-oxo-4H-pyran-2-yl)methyl)-1H-1,2,3-triazol-4-yl)meth-yl)thio)-1,3,4-thiadiazol-2-yl)-3-methylbenzamide] | > 200 µM |
| Cc1ccc(C(=O)Nc2nnc(SCc3cn(Cc4cc(=O)c(O)co4)nn3)s2)cc1 [Compound 6d, N-(5-(((1-((5-hydroxy-4-oxo-4H-pyran-2-yl)methyl)-1H-1,2,3-triazol-4-yl)meth-yl)thio)-1,3,4-thiadiazol-2-yl)-4-methylbenzamide] | > 200 µM |
| O=C(Cc1ccc(F)cc1)Nc1nnc(SCc2cn(Cc3cc(=O)c(O)co3)nn2)s1 [Compound 6o, 2-(4-fluorophenyl)-N-(5-(((1-((5-hydroxy-4-oxo-4H-pyran-2-yl)methyl)-1H-1,2,3-triazol-4-yl)methyl)thio)-1,3,4-thiadiazol-2-yl)acetamide] | 11.98 ± 0.022 µM |

The remaining lines, values ahead:

| IC50 | SMILES |
| --- | --- |
| 2.474 ± 0.023 µM | O=Cc1cccc(OCc2cn(Cc3cc(=O)c(O)co3)nn2)c1 [Compound 13a, 3-((1-((5-hydroxy-4-oxo-4H-pyran-2-yl)methyl)-1H-1,2,3-triazol-4-yl)methoxy)-benzaldehyde] |
| 2.1 ± 0.078 µM | O=Cc1ccccc1OCc1cn(Cc2cc(=O)c(O)co2)nn1 [Compound 13g, 2-((1-((5-hydroxy-4-oxo-4H-pyran-2-yl)methyl)-1H-1,2,3-triazol-4-yl)methoxy)benzaldehyde] |
| 4.604 ± 0.046 µM | CC(=O)c1cccc(OCc2cn(Cc3cc(=O)c(O)co3)nn2)c1 [Compound 13b, 2-((4-((3-acetylphenoxy)methyl)-1H-1,2,3-triazol-1-yl)methyl)-5-hydroxy-4H-pyran-4-one] |
| 5.961 ± 0.036 µM | O=Cc1ccc(F)cc1OCc1cn(Cc2cc(=O)c(O)co2)nn1 [Compound 13f, 4-fluoro-2-((1-((5-hydroxy-4-oxo-4H-pyran-2-yl)methyl)-1H-1,2,3-triazol-4-yl)methoxy)benzaldehyde] |
| 4.231 ± 0.029 µM | O=Cc1ccc(Br)cc1OCc1cn(Cc2cc(=O)c(O)co2)nn1 [Compound 13p, 4-bromo-2-((1-((5-hydroxy-4-oxo-4H-pyran-2-yl)methyl)-1H-1,2,3-triazol-4-yl)methoxy)benzaldehyde] |
| 4.98 ± 0.057 µM | CC(C)(C)c1cccc(C=O)c1OCc1cn(Cc2cc(=O)c(O)co2)nn1 [Compound 13l, 3-(tert-butyl)-2-((1-((5-hydroxy-4-oxo-4H-pyran-2-yl)methyl)-1H-1,2,3-triazol-4-yl)methoxy)benzaldehyde] |
| 1.517 ± 0.01 µM | CC(=O)c1ccccc1OCc1cn(Cc2cc(=O)c(O)co2)nn1 [Compound 13k, 2-((4-((2-acetylphenoxy)methyl)-1H-1,2,3-triazol-1-yl)methyl)-5-hydroxy-4H-pyran-4-one] |
| 4.571 ± 0.004 µM | O=Cc1ccc(Cl)cc1OCc1cn(Cc2cc(=O)c(O)co2)nn1 [Compound 13m, 4–CHloro-2-((1-((5-hydroxy-4-oxo-4H-pyran-2-yl)methyl)-1H-1,2,3-triazol-4-yl)methoxy)benzaldehyde] |
| 4.55 ± 0.062 µM | O=Cc1ccc(OCc2cn(Cc3cc(=O)c(O)co3)nn2)cc1 [Compound 13c, 4-((1-((5-hydroxy-4-oxo-4H-pyran-2-yl)methyl)-1H-1,2,3-triazol-4-yl)methoxy)benzaldehyde] |
| 9.908 ± 0.044 µM | CC(=O)c1ccc(OCc2cn(Cc3cc(=O)c(O)co3)nn2)cc1 [Compound 13d, 2-((4-((4-acetylphenoxy)methyl)-1H-1,2,3-triazol-1-yl)methyl)-5-hydroxy-4H-pyran-4-one] |

test system: fresh-cut apples; assay: Anti-browning experiment on fresh-cut apples; set-up: species or system Fuji apples; conditions: 50 µM, stored at 5 °C for 4 days

| SMILES | L* value of fresh-cut apples |
| --- | --- |
| O=c1cc(CO)occ1O [Kojic acid, kojic acid, reference compound] | 63.04 |
| O=C1O[C@H]([C@@H](O)CO)C(O)=C1O [Vc, ascorbic acid, reference compound] | 63.58 |
